{"source": "PubChem BioAssay AID2060493", "about": "(Molecular Pharmacology Branch, DTP, NCI, 2025);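 further: spheroids exposed to agents for 7 days before readout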;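 on viability, T/C: percent viability relative to DMSO vehicle control wells taken as 100%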", "test_system": "616215-338-R-J1-PDC tumor spheroids, viability", "experiment": "Anticancer human tumor 616215-338-R-J1-PDC patient-derived colon adenocarcinoma cell line growth inhibition [GQUAD]", "conditions": "spheroids with HUVEC and MSC; for IC50: curve of first compound; for viability, T/C: stronger effect = lower value", "method_in_brief": "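Tumor cells were grown as complex spheroids with HUVEC endothelial cells and mesenchymal stem cells as stroma. G-quadruplex stabilizers were combined with targeted agents over half-log dilutions from near the clinical Cmax, or from 10 microM.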", "key": {"[1]": {"conditions": "second compound 0.0316 µM, first compound 0.0316 µM"}, "[2]": {"conditions": "second compound 0.0316 µM, first compound 0.316 µM"}, "[3]": {"conditions": "second compound 0.1 µM, first compound 0.0316 µM"}, "[4]": {"conditions": "second compound 0.1 µM, first compound 0.316 µM"}, "[5]": {"conditions": "second compound 0.316 µM, first compound 0.0316 µM"}, "[6]": {"conditions": "second compound 0.316 µM, first compound 0.316 µM"}, "[7]": {"conditions": "second compound 1 µM, first compound 0.0316 µM"}, "[8]": {"conditions": "second compound 1 µM, first compound 0.316 µM"}, "[9]": {"conditions": "second compound 3.16 µM, first compound 0.0316 µM"}, "[10]": {"conditions": "second compound 3.16 µM, first compound 0.316 µM"}, "[11]": {"conditions": "second compound 10 µM, first compound 0.0316 µM"}, "[12]": {"conditions": "second compound 10 µM, first compound 0.316 µM"}}}
{"smiles": "COc1ccc([C@@H](O)c2cc(-c3ncnc4cc(N5CCOCC5)ccc34)c(F)cc2Cl)nn1", "note": "+ Cc1[nH]c2ccc(F)cc2c1-c1nc2c3cccnc3c3ncccc3c2[nH]1", "values": [{"measurement": "IC50", "setting": "second compound 0.0316 µM", "result": "> 10000", "unit": "nM"}, {"measurement": "IC50", "setting": "second compound 0.1 µM", "result": "> 10000", "unit": "nM"}, {"measurement": "IC50", "setting": "second compound 0.316 µM", "result": "> 10000", "unit": "nM"}, {"measurement": "IC50", "setting": "second compound 1 µM", "result": "> 10000", "unit": "nM"}, {"measurement": "IC50", "setting": "second compound 3.16 µM", "result": "> 10000", "unit": "nM"}, {"measurement": "IC50", "setting": "second compound 10 µM", "result": 8730, "unit": "nM"}, {"measurement": "viability, T/C", "setting": "[1]", "result": 106, "unit": "%"}, {"measurement": "viability, T/C", "setting": "second compound 0.0316 µM, first compound 0.1 µM", "result": 108, "unit": "%"}, {"measurement": "viability, T/C", "setting": "[2]", "result": 101, "unit": "%"}, {"measurement": "viability, T/C", "setting": "second compound 0.0316 µM, first compound 1 µM", "result": 105, "unit": "%"}, {"measurement": "viability, T/C", "setting": "second compound 0.0316 µM, first compound 3.16 µM", "result": 106, "unit": "%"}, {"measurement": "viability, T/C", "setting": "second compound 0.0316 µM, first compound 10 µM", "result": 53.6, "unit": "%"}, {"measurement": "viability, T/C", "setting": "[3]", "result": 108, "unit": "%"}, {"measurement": "viability, T/C", "setting": "second compound 0.1 µM, first compound 0.1 µM", "result": 104, "unit": "%"}, {"measurement": "viability, T/C", "setting": "[4]", "result": 110, "unit": "%"}, {"measurement": "viability, T/C", "setting": "second compound 0.1 µM, first compound 1 µM", "result": 104, "unit": "%"}, {"measurement": "viability, T/C", "setting": "second compound 0.1 µM, first compound 3.16 µM", "result": 104, "unit": "%"}, {"measurement": "viability, T/C", "setting": "second compound 0.1 µM, first compound 10 µM", "result": 58.4, "unit": "%"}, {"measurement": "viability, T/C", "setting": "[5]", "result": 104, "unit": "%"}, {"measurement": "viability, T/C", "setting": "second compound 0.316 µM, first compound 0.1 µM", "result": 111, "unit": "%"}, {"measurement": "viability, T/C", "setting": "[6]", "result": 111, "unit": "%"}, {"measurement": "viability, T/C", "setting": "second compound 0.316 µM, first compound 1 µM", "result": 111, "unit": "%"}, {"measurement": "viability, T/C", "setting": "second compound 0.316 µM, first compound 3.16 µM", "result": 111, "unit": "%"}, {"measurement": "viability, T/C", "setting": "second compound 0.316 µM, first compound 10 µM", "result": 61, "unit": "%"}, {"measurement": "viability, T/C", "setting": "[7]", "result": 101, "unit": "%"}, {"measurement": "viability, T/C", "setting": "second compound 1 µM, first compound 0.1 µM", "result": 99.2, "unit": "%"}, {"measurement": "viability, T/C", "setting": "[8]", "result": 104, "unit": "%"}, {"measurement": "viability, T/C", "setting": "second compound 1 µM, first compound 1 µM", "result": 96.8, "unit": "%"}, {"measurement": "viability, T/C", "setting": "second compound 1 µM, first compound 3.16 µM", "result": 90.2, "unit": "%"}, {"measurement": "viability, T/C", "setting": "second compound 1 µM, first compound 10 µM", "result": 72.5, "unit": "%"}, {"measurement": "viability, T/C", "setting": "[9]", "result": 96.7, "unit": "%"}, {"measurement": "viability, T/C", "setting": "second compound 3.16 µM, first compound 0.1 µM", "result": 99.2, "unit": "%"}, {"measurement": "viability, T/C", "setting": "[10]", "result": 90, "unit": "%"}, {"measurement": "viability, T/C", "setting": "second compound 3.16 µM, first compound 1 µM", "result": 97.8, "unit": "%"}, {"measurement": "viability, T/C", "setting": "second compound 3.16 µM, first compound 3.16 µM", "result": 97.4, "unit": "%"}, {"measurement": "viability, T/C", "setting": "second compound 3.16 µM, first compound 10 µM", "result": 51.2, "unit": "%"}, {"measurement": "viability, T/C", "setting": "[11]", "result": 90.3, "unit": "%"}, {"measurement": "viability, T/C", "setting": "second compound 10 µM, first compound 0.1 µM", "result": 101, "unit": "%"}, {"measurement": "viability, T/C", "setting": "[12]", "result": 97.4, "unit": "%"}, {"measurement": "viability, T/C", "setting": "second compound 10 µM, first compound 1 µM", "result": 117, "unit": "%"}, {"measurement": "viability, T/C", "setting": "second compound 10 µM, first compound 3.16 µM", "result": 100, "unit": "%"}, {"measurement": "viability, T/C", "setting": "second compound 10 µM, first compound 10 µM", "result": 43.2, "unit": "%"}]}
{"smiles": "CCc1c2c(nc3ccc(O)cc13)-c1cc3c(c(=O)n1C2)COC(=O)[C@]3(O)CC", "note": "+ Cc1cnc(CNC(=O)c2c(=O)c3ccc(N4CCCN(C)CC4)nc3n3c2sc2ccccc23)cn1", "values": [{"measurement": "IC50", "setting": "second compound 0.0316 µM", "result": 9.82, "unit": "nM"}, {"measurement": "IC50", "setting": "second compound 0.1 µM", "result": 5.05, "unit": "nM"}, {"measurement": "IC50", "setting": "second compound 0.316 µM", "result": "< 0.999", "unit": "nM"}, {"measurement": "IC50", "setting": "second compound 1 µM", "result": "< 0.999", "unit": "nM"}, {"measurement": "IC50", "setting": "second compound 3.16 µM", "result": "< 0.999", "unit": "nM"}, {"measurement": "IC50", "setting": "second compound 10 µM", "result": "< 0.999", "unit": "nM"}, {"measurement": "viability, T/C", "setting": "second compound 0.0316 µM, first compound 0.000999 µM", "result": 105, "unit": "%"}, {"measurement": "viability, T/C", "setting": "second compound 0.0316 µM, first compound 0.00316 µM", "result": 79.5, "unit": "%"}, {"measurement": "viability, T/C", "setting": "second compound 0.0316 µM, first compound 0.00999 µM", "result": 47.5, "unit": "%"}, {"measurement": "viability, T/C", "setting": "[1]", "result": 30.2, "unit": "%"}, {"measurement": "viability, T/C", "setting": "second compound 0.0316 µM, first compound 0.0999 µM", "result": 22.1, "unit": "%"}, {"measurement": "viability, T/C", "setting": "[2]", "result": 12.9, "unit": "%"}, {"measurement": "viability, T/C", "setting": "second compound 0.1 µM, first compound 0.000999 µM", "result": 62.2, "unit": "%"}, {"measurement": "viability, T/C", "setting": "second compound 0.1 µM, first compound 0.00316 µM", "result": 58.3, "unit": "%"}, {"measurement": "viability, T/C", "setting": "second compound 0.1 µM, first compound 0.00999 µM", "result": 39.8, "unit": "%"}, {"measurement": "viability, T/C", "setting": "[3]", "result": 25.6, "unit": "%"}, {"measurement": "viability, T/C", "setting": "second compound 0.1 µM, first compound 0.0999 µM", "result": 18.2, "unit": "%"}, {"measurement": "viability, T/C", "setting": "[4]", "result": 9.44, "unit": "%"}, {"measurement": "viability, T/C", "setting": "second compound 0.316 µM, first compound 0.000999 µM", "result": 49.3, "unit": "%"}, {"measurement": "viability, T/C", "setting": "second compound 0.316 µM, first compound 0.00316 µM", "result": 37, "unit": "%"}, {"measurement": "viability, T/C", "setting": "second compound 0.316 µM, first compound 0.00999 µM", "result": 24.6, "unit": "%"}, {"measurement": "viability, T/C", "setting": "[5]", "result": 31.4, "unit": "%"}, {"measurement": "viability, T/C", "setting": "second compound 0.316 µM, first compound 0.0999 µM", "result": 13.5, "unit": "%"}, {"measurement": "viability, T/C", "setting": "[6]", "result": 6.95, "unit": "%"}, {"measurement": "viability, T/C", "setting": "second compound 1 µM, first compound 0.000999 µM", "result": 38.1, "unit": "%"}, {"measurement": "viability, T/C", "setting": "second compound 1 µM, first compound 0.00316 µM", "result": 19.4, "unit": "%"}, {"measurement": "viability, T/C", "setting": "second compound 1 µM, first compound 0.00999 µM", "result": 24.9, "unit": "%"}, {"measurement": "viability, T/C", "setting": "[7]", "result": 18.7, "unit": "%"}, {"measurement": "viability, T/C", "setting": "second compound 1 µM, first compound 0.0999 µM", "result": 13.7, "unit": "%"}, {"measurement": "viability, T/C", "setting": "[8]", "result": 0.14, "unit": "%"}, {"measurement": "viability, T/C", "setting": "second compound 3.16 µM, first compound 0.000999 µM", "result": 20, "unit": "%"}, {"measurement": "viability, T/C", "setting": "second compound 3.16 µM, first compound 0.00316 µM", "result": 25.2, "unit": "%"}, {"measurement": "viability, T/C", "setting": "second compound 3.16 µM, first compound 0.00999 µM", "result": 21.1, "unit": "%"}, {"measurement": "viability, T/C", "setting": "[9]", "result": 14.4, "unit": "%"}, {"measurement": "viability, T/C", "setting": "second compound 3.16 µM, first compound 0.0999 µM", "result": 17.8, "unit": "%"}, {"measurement": "viability, T/C", "setting": "[10]", "result": 0.15, "unit": "%"}, {"measurement": "viability, T/C", "setting": "second compound 10 µM, first compound 0.000999 µM", "result": 23.8, "unit": "%"}, {"measurement": "viability, T/C", "setting": "second compound 10 µM, first compound 0.00316 µM", "result": 22, "unit": "%"}, {"measurement": "viability, T/C", "setting": "second compound 10 µM, first compound 0.00999 µM", "result": 23.6, "unit": "%"}, {"measurement": "viability, T/C", "setting": "[11]", "result": 5.75, "unit": "%"}, {"measurement": "viability, T/C", "setting": "second compound 10 µM, first compound 0.0999 µM", "result": 0.31, "unit": "%"}, {"measurement": "viability, T/C", "setting": "[12]", "result": 0.21, "unit": "%"}]}
